Laboratory results taken from patent publication US20250230147A1, “LACTAMS AS CBL-B INHIBITORS” (Genentech, Inc., priority 2021, published 2025).
Counter-ions that a name gives are not always drawn.

Legend:
Cbl-b = Cbl-b (Homo sapiens (Human), UniProt Q13191); assay: Cbl-b LCK Ub TR-FRET assay (Cbl-b Lck HTRF); assay type: biochemical
How it was run: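 TR-FRET (340 nm excitation, 615/665 nm emission) read after adding HA-ubiquitin–UBE2D2 thioester, anti-HA-D2 and streptavidin-Eu. Beforehand, compounds incubated 60 min with biotinylated Cbl-b, then 90 min with His-LCK and ATP (1 mM in 2× mix); IC50 from 10 concentrations, DMSO high and no-LCK low controls.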

c-Cbl = c-Cbl (Homo sapiens (Human), UniProt P22681); assay: C-Cbl LCK Ub TR-FRET assay (c-cbl Lck HTRF); assay type: biochemical; settings: for (fold-selectivity): C-cbl Lck HTRF IC50 relative to Cbl-b Lck HTRF IC50
c-Cbl, sequence (P22681 47-435): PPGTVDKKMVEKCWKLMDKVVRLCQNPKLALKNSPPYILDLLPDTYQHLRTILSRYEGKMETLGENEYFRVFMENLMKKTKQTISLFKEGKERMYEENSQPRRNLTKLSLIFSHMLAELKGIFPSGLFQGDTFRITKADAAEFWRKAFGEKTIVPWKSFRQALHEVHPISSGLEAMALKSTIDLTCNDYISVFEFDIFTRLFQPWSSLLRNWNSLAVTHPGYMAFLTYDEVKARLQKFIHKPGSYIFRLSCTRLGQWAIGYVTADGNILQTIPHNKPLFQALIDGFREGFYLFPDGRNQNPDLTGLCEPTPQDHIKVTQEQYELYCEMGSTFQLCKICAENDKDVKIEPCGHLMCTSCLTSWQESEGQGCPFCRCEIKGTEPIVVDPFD
How it was run: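 After the ubiquitination reaction, detection mixture was added and plates incubated 20 min at room temperature before reading. IC50 values were calculated with wells lacking LCK as the low control and DMSO as the high control.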

Cbl-b, sequence (Q13191 40-426): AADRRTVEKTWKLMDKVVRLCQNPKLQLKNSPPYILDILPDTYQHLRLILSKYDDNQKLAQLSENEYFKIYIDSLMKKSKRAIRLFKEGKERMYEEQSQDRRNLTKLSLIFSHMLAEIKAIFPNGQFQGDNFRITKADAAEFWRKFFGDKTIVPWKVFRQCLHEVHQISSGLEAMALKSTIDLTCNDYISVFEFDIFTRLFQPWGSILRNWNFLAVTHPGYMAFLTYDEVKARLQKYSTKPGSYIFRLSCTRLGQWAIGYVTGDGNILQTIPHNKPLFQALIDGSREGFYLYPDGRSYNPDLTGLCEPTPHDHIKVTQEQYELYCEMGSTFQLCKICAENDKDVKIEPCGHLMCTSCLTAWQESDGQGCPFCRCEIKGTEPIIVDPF

Compound	IC50 (Cbl-b)	IC50 (c-Cbl)	(fold-selectivity) (c-Cbl)
C#Cc1cccc2c1CN(c1cccc(C3([C@@H](F)c4nncn4C)COC3)c1)C2=O [Compound 211, (R)-4-ethynyl-2-(3-(3-(fluoro(4-methyl-4H-1,2,4-triazol-3-yl)methyl)oxetan-3-yl)phenyl)isoindolin-1-one]	940 nM	1600 nM	1.7x
CNCc1cc2c(c(C(F)(F)F)c1)CN(c1cccc(C3([C@@H](F)c4nncn4C)COC3)c1)C2=O [Compound 212, (R)-2-(3-(3-(fluoro(4-methyl-4H-1,2,4-triazol-3-yl)methyl)oxetan-3-yl)phenyl)-6-((methylamino)methyl)-4-(trifluoromethyl)isoindolin-1-one]	75 nM	130 nM	1.7 x
CCNCc1cc2c(c(C(F)(F)F)c1)CN(c1cccc(C3([C@@H](F)c4nncn4C)COC3)c1)C2=O [Compound 213, (R)-6-((ethylamino)methyl)-2-(3-(3-(fluoro(4-methyl-4H-1,2,4-triazol-3-yl)methyl)oxetan-3-yl)phenyl)-4-(trifluoromethyl)isoindolin-1-one]	38 nM	61 nM	1.6x
C[C@H]1CN(C)CCN1Cc1cc2c(c(C(F)(F)F)c1)CN(c1cccc(C3(Cc4nncn4C)CC(F)(F)C3)c1)C2=O [Compound 214, (S)-2-(3-(3,3-difluoro-1-((4-methyl-4H-1,2,4-triazol-3-yl)methyl)cyclobutyl)phenyl)-6-((2,4-dimethylpiperazin-1-yl)methyl)-4-(trifluoromethyl)isoindolin-1-one]	42 nM	41 nM	0.96x
CC(C)[C@H]1CNCCN1Cc1cc2c(c(C(F)(F)F)c1)CN(c1cccc(C3(Cc4nncn4C)CC(F)(F)C3)c1)C2=O [Compound 219, (S)-2-(3-(3,3-difluoro-1-((4-methyl-4H-1,2,4-triazol-3-yl)methyl)cyclobutyl)phenyl)-6-((2-isopropylpiperazin-1-yl)methyl)-4-(trifluoromethyl)isoindolin-1-one]	75 nM	84 nM	1.1x
C[C@@H]1CN(Cc2cc3c(c(C(F)(F)F)c2)CN(c2cccc(C4(Cc5nncn5C)CC(F)(F)C4)c2)C3=O)CCN1C [Compound 220, (R)-2-(3-(3,3-difluoro-1-((4-methyl-4H-1,2,4-triazol-3-yl)methyl)cyclobutyl)phenyl)-6-((3,4-dimethylpiperazin-1-yl)methyl)-4-(trifluoromethyl)isoindolin-1-one]	34 nM	35 nM	1.0x
Cc1cnnn1CC1(c2cccc(N3Cc4c(cc(CN5CCN(C)C[C@@H]5C(C)C)cc4C(F)(F)F)C3=O)c2)COC1 [Compound 222, (S)-6-((2-Isopropyl-4-methylpiperazin-1-yl)methyl)-2-(3-(3-((5-methyl-1H-1,2,3-triazol-1-yl)methyl)oxetan-3-yl)phenyl)-4-(trifluoromethyl)isoindolin-1-one]	22 nM	26 nM	1.2x
CC(C)NCc1cc2c(c(C(F)(F)F)c1)CN(c1cccc(C3([C@@H](F)c4nncn4C)COC3)c1)C2=O [Compound 226, (R)-2-(3-(3-(fluoro(4-methyl-4H-1,2,4-triazol-3-yl)methyl)oxetan-3-yl)phenyl)-6-((isopropylamino)methyl)-4-(trifluoromethyl)isoindolin-1-one formate]	29 nM	33 nM	
Cn1cnnc1[C@H](F)C1(c2cccc(N3Cc4c(cc(CNC5CCC5)cc4C(F)(F)F)C3=O)c2)COC1 [Compound 227, (R)-6-((Cyclobutylamino)methyl)-2-(3-(3-(fluoro(4-methyl-4H-1,2,4-triazol-3-yl)methyl)oxetan-3-yl)phenyl)-4-(trifluoromethyl)isoindolin-1-one formate]	16 nM	13 nM	
CCCNCc1cc2c(c(C(F)(F)F)c1)CN(c1cccc(C3([C@@H](F)c4nncn4C)COC3)c1)C2=O [Compound 228, (R)-2-(3-(3-(fluoro(4-methyl-4H-1,2,4-triazol-3-yl)methyl)oxetan-3-yl)phenyl)-6-((propylamino)methyl)-4-(trifluoromethyl)isoindolin-1-one formate]	12 nM	96 nM	

Continued by falling IC50 (Cbl-b), values first:

IC50 (Cbl-b)	IC50 (c-Cbl)	(fold-selectivity) (c-Cbl)	Compound
22 nM	29 nM	1.3x	CC(C)[C@@H]1CN(Cc2cc3c(c(C(F)(F)F)c2)CN(c2cccc(C4([C@@H](F)c5nncn5C)COC4)c2)C3=O)CCN1C [Compound 218, 2-(3-(3-((R)-fluoro(4-methyl-4H-1,2,4-triazol-3-yl)methyl)oxetan-3-yl)phenyl)-6-(((R)-3-isopropyl-4-methylpiperazin-1-yl)methyl)-4-(trifluoromethyl)isoindolin-1-one]
17 nM	20 nM	1.2x	CC(C)[C@H]1CNCCN1Cc1cc2c(c(C(F)(F)F)c1)CN(c1cccc(C3([C@H](F)c4nncn4C)CCC3)c1)C2=O [Compound 217, 2-(3-(1-((S)-fluoro(4-methyl-4H-1,2,4-triazol-3-yl)methyl)cyclobutyl)phenyl)-6-(((S)-2-isopropylpiperazin-1-yl)methyl)-4-(trifluoromethyl)isoindolin-1-one]
15 nM	15 nM	1.0x	CC(C)[C@H]1CN(C)CCN1Cc1cc2c(c(C(F)(F)F)c1)CN(c1cccc(C3(C(F)(F)c4nncn4C)CC3)c1)C2=O [Compound 221, (S)-2-(3-(1-(Difluoro(4-methyl-4H-1,2,4-triazol-3-yl)methyl)cyclopropyl)phenyl)-6-((2-isopropyl-4-methylpiperazin-1-yl)methyl)-4-(trifluoromethyl)isoindolin-1-one]
12 nM	10 nM	(0.83x)	Cn1cnnc1[C@H](F)C1(c2cccc(N3Cc4c(cc(CNC5(C)CC5)cc4C(F)(F)F)C3=O)c2)COC1 [Compound 229, (R)-2-(3-(3-(fluoro(4-methyl-4H-1,2,4-triazol-3-yl)methyl)oxetan-3-yl)phenyl)-6-(((1-methylcyclopropyl)amino)methyl)-4-(trifluoromethyl)isoindolin-1-one]
8 nM	4.8 nM	0.60x	CC(C)[C@H]1CNCCN1Cc1cc2c(c(C(F)(F)F)c1)CN(c1cccc(C3([C@@H](F)c4nncn4C)CCC3)c1)C2=O [Compound 216, 2-(3-(1-((R)-fluoro(4-methyl-4H-1,2,4-triazol-3-yl)methyl)cyclobutyl)phenyl)-6-(((S)-2-isopropylpiperazin-1-yl)methyl)-4-(trifluoromethyl)isoindolin-1-one]
7.5 nM	5 nM	0.66x	CC(C)[C@H]1CN(C)CCN1Cc1cc2c(c(C(F)(F)F)c1)CN(c1cccc(C3(Cc4nncn4C)CC(F)(F)C3)c1)C2=O [Compound 215, (S)-2-(3-(3,3-difluoro-1-((4-methyl-4H-1,2,4-triazol-3-yl)methyl)cyclobutyl)phenyl)-6-((2-isopropyl-4-methylpiperazin-1-yl)methyl)-4-(trifluoromethyl)isoindolin-1-one]
